Measurements reported in US6737383B1, “Herbicidal oxadiazolidines” (priority 1999, dated 2004).

Experiments:
[1] = system: rice; assay: Test B flood test rice; assay type: in vivo, Oryza sativa
Summary of the method: (§1)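 Read-out is a visual response score from 0 (no effect) to 10 (complete control), assigned by comparison with untreated controls. Treatment was applied at the 2-leaf stage, and plants stayed in the greenhouse for twelve to sixteen days before scoring.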

[2] = system: sugar beet; assay: Test B pre/postemergence sugar beet; assay type: in vivo, Beta vulgaris
Summary of the method: (§2)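 Herbicidal effect was estimated by eye on a ten-point control scale after plants spent twelve to sixteen days in a greenhouse following soil or foliar treatment. Foliar sprays targeted plants at one to four leaves; all doses were formulated in a non-phytotoxic solvent with surfactant.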

[3] = system: bedstraw; assay: Test B pre/postemergence bedstraw; assay type: in vivo, Galium aparine; conditions: Preemergence
Summary of the method: as §2

[4] = system: giant foxtail; assay: Test B pre/postemergence giant foxtail; assay type: in vivo, Setaria faberii
Summary of the method: as §2

[5] = system: smallflower flatsedge; assay: Test B flood test smallflower flatsedge; assay type: in vivo, Cyperus difformis
Summary of the method: as §1

[6] = system: wild oat; assay: Test B pre/postemergence wild oat; assay type: in vivo, Avena fatua
Summary of the method: as §2

[7] = system: purple nutsedge; assay: Test B pre/postemergence purple nutsedge; assay type: in vivo, Cyperus rotundus
Summary of the method: as §2

[8] = system: pigweed; assay: Test B pre/postemergence pigweed; assay type: in vivo, Amaranthus retroflexus
Summary of the method: as §2

[9] = system: blackgrass; assay: Test B pre/postemergence blackgrass; assay type: in vivo, Alopecurus myosuroides
Summary of the method: as §2

[10] = system: morningglory; assay: Test B pre/postemergence morningglory; assay type: in vivo, Ipomoea hederacea
Summary of the method: as §2

[11] = system: surinam grass; assay: Test B pre/postemergence surinam grass; assay type: in vivo, Brachiaria decumbens
Summary of the method: as §2

[12] = system: corn; assay: Test B pre/postemergence corn; assay type: in vivo, Zea mays
Summary of the method: as §2

[13] = system: rape; assay: Test B pre/postemergence rape; assay type: in vivo, Brassica napus
Summary of the method: as §2

[14] = system: crabgrass; assay: Test B pre/postemergence crabgrass; assay type: in vivo, Digitaria sanguinalis
Summary of the method: as §2

[15] = system: wheat; assay: Test B pre/postemergence wheat; assay type: in vivo, Triticum aestivum
Summary of the method: as §2

[16] = system: bamyardgrass; assay: Test B flood test barnyardgrass; assay type: in vivo, Echinochloa crus-galli
Summary of the method: as §1

[17] = Rate 62 g/ha, flood test species, Pre-emergence, visual evaluation after twelve to sixteen days
[18] = Rate 125 g/ha, under heading Pre-emergence, flood test species, visual evaluation after twelve to sixteen days
[19] = Rate 250 g/ha, Pre-emergence (flood test species), scale 0 to 10, 0 is no effect, 10 is complete control
[20] = Rate 500 g/ha, Pre-emergence section of Table B, 0 to 10 scale (0 no effect, 10 complete control)
[21] = Postemergence, Rate 62 g/ha, scale 0 to 10, 0 is no effect, 10 is complete control
[22] = Postemergence, Rate 125 g/ha, scale of 0 to 10 where 0 is no effect and 10 is complete control
[23] = Postemergence, Rate 250 g/ha, scale of 0 to 10, 0 is no effect, 10 is complete control
[24] = Preemergence, Rate 62 g/ha, scale 0 to 10 (0 no effect, 10 complete control)
[25] = Preemergence, Rate 125 g/ha, scale of 0 to 10 where 0 is no effect and 10 is complete control
[26] = Preemergence, Rate 250 g/ha, scale 0 to 10 (0 no effect, 10 complete control)
[27] = Preemergence, Rate 500 g/ha, scale of 0 to 10 where 0 is no effect and 10 is complete control
[28] = Postemergence, Rate 500 g/ha, scale of 0 to 10 where 0 is no effect and 10 is complete control

SMILES: COCCn1c(=O)on(C(=O)N(c2ccc(F)cc2)C(C)C)c1=O [Compound 627]
- Plant response rating, Rice (0 to 10 scale, 0 is no effect, 10 is complete control) [1, 17]: 0
- Rice plant response rating (0 to 10 scale, 0 is no effect, 10 is complete control) [1, 18]: 0
- Rice plant response rating [1, 19]: 0
- Rice plant response rating [1, 20]: 0
- Plant response rating, Sugarbeets [2, 21]: 0
- Plant response rating, Sugarbeets [2, 22]: 0
- Sugarbeets plant response rating [2, 23]: 0
- Sugarbeets plant response rating [2, 24]: 5
- Sugarbeets plant response rating [2, 25]: 4
- Plant response rating, Sugarbeets [2, 26]: 8
- Plant response rating, Sugarbeets [2, 27]: 9
- Bedstraw plant response rating ([3]; Rate 62 g/ha, scale 0 to 10 (0 no effect, 10 complete control)): 2
- Bedstraw plant response rating ([3]; Rate 125 g/ha, scale of 0 to 10 where 0 is no effect and 10 is complete control): 2
- Plant response rating, Bedstraw ([3]; Rate 250 g/ha, scale 0 to 10 (0 no effect, 10 complete control)): 8
- Plant response rating, Bedstraw ([3]; Rate 500 g/ha, scale of 0 to 10 where 0 is no effect and 10 is complete control): 8
- Plant response rating, Giant foxtail [4, 21]: 9
- Giant foxtail plant response rating [4, 23]: 9
- Plant response rating, Giant foxtail [4, 28]: 9
- Giant foxtail plant response rating [4, 24]: 9
- Giant foxtail plant response rating [4, 25]: 10
- Plant response rating, Giant foxtail [4, 26]: 10
- Plant response rating, Giant foxtail [4, 27]: 10
- Plant response rating, S. Flatsedge (0 to 10 scale, 0 is no effect, 10 is complete control) [5, 17]: 0
- S. Flatsedge plant response rating (0 to 10 scale, 0 is no effect, 10 is complete control) [5, 18]: 0
- S. Flatsedge plant response rating [5, 19]: 0
- S. Flatsedge plant response rating [5, 20]: 3
- Plant response rating, Wild oats [6, 21]: 0
- Plant response rating, Wild oats [6, 22]: 2
- Wild oats plant response rating [6, 23]: 6
- Wild oats plant response rating [6, 24]: 0
- Wild oats plant response rating [6, 25]: 3
- Plant response rating, Wild oats [6, 26]: 5
- Plant response rating, Wild oats [6, 27]: 5
- Plant response rating, Nutsedge [7, 21]: 3
- Nutsedge plant response rating [7, 23]: 6
- Nutsedge plant response rating [7, 24]: 7
- Nutsedge plant response rating [7, 25]: 7
- Plant response rating, Nutsedge [7, 26]: 7
- Plant response rating, Nutsedge [7, 27]: 10
- Plant response rating, Redroot pigweed [8, 21]: 2
- Plant response rating, Redroot pigweed [8, 22]: 3
- Redroot pigweed plant response rating [8, 23]: 6
- Redroot pigweed plant response rating [8, 24]: 9
- Redroot pigweed plant response rating [8, 25]: 9
- Plant response rating, Redroot pigweed [8, 26]: 10
- Plant response rating, Redroot pigweed [8, 27]: 10
- Plant response rating, Blackgrass [9, 21]: 8
- Plant response rating, Blackgrass [9, 22]: 8
- Blackgrass plant response rating [9, 23]: 9
- Plant response rating, Blackgrass [9, 28]: 9
- Blackgrass plant response rating [9, 24]: 8
- Blackgrass plant response rating [9, 25]: 8
- Plant response rating, Blackgrass [9, 26]: 9
- Plant response rating, Blackgrass [9, 27]: 10
- Plant response rating, Morningglory [10, 21]: 3
- Plant response rating, Morningglory [10, 22]: 6
- Morningglory plant response rating [10, 23]: 6
- Plant response rating, Morningglory [10, 28]: 6
- Morningglory plant response rating [10, 24]: 6
- Morningglory plant response rating [10, 25]: 6
- Plant response rating, Morningglory [10, 26]: 6
- Plant response rating, Morningglory [10, 27]: 8
- Plant response rating, B. signalgrass [11, 21]: 3
- Plant response rating, B. signalgrass [11, 22]: 7
- B. signalgrass plant response rating [11, 23]: 7
- Plant response rating, B. signalgrass [11, 28]: 8
- B. signalgrass plant response rating [11, 24]: 5
- B. signalgrass plant response rating [11, 25]: 5
- Plant response rating, B. signalgrass [11, 26]: 8
- Plant response rating, B. signalgrass [11, 27]: 9
- Plant response rating, Corn [12, 21]: 0
- Plant response rating, Corn [12, 22]: 3
- Corn plant response rating [12, 23]: 7
- Plant response rating, Corn [12, 28]: 8
- Corn plant response rating [12, 24]: 3
- Corn plant response rating [12, 25]: 4
- Plant response rating, Corn [12, 26]: 6
- Plant response rating, Corn [12, 27]: 9
- Plant response rating, Rape [13, 21]: 0
- Plant response rating, Rape [13, 22]: 0
- Rape plant response rating [13, 23]: 0
- Plant response rating, Rape [13, 28]: 5
- Rape plant response rating [13, 24]: 1
- Rape plant response rating [13, 25]: 3
- Plant response rating, Rape [13, 26]: 9
- Plant response rating, Rape [13, 27]: 10
- Plant response rating, Crabgrass [14, 21]: 8
- Plant response rating, Crabgrass [14, 22]: 8
- Crabgrass plant response rating [14, 23]: 9
- Plant response rating, Crabgrass [14, 28]: 9
- Crabgrass plant response rating [14, 24]: 7
- Crabgrass plant response rating [14, 25]: 8
- Plant response rating, Crabgrass [14, 26]: 9
- Plant response rating, Crabgrass [14, 27]: 9
- Plant response rating, Wheat [15, 21]: 2
- Plant response rating, Wheat [15, 22]: 3
- Wheat plant response rating [15, 23]: 6
- Wheat plant response rating [15, 24]: 0
- Wheat plant response rating [15, 25]: 0
- Plant response rating, Wheat [15, 26]: 7
- Plant response rating, Wheat [15, 27]: 5
- Plant response rating, Barnyardgrass (0 to 10 scale, 0 is no effect, 10 is complete control) [16, 17]: 0
- Barnyardgrass plant response rating (0 to 10 scale, 0 is no effect, 10 is complete control) [16, 18]: 0
- Barnyardgrass plant response rating [16, 19]: 0
- Barnyardgrass plant response rating [16, 20]: 8
